According to patent US20240010641A1, “N-Linked Glycosylation Inhibitors and Methods of Using Same” (YALE UNIVERSITY, priority 2020, published 2024):

How the values were obtained:
Assay type in all cases: cell-based
[1] = test system: N-linked glycosylation (OST) in CHO-ER-LucT cells; assay: CHO-ER-LucT luminescence assay for inhibition of N-linked glycosylation; conditions: for Emax: 24 h, [compound's fold change-1.0 (DMSO)]/[NGI-1 fold change-1.0 (DMSO)]*100, read-out: Max activity (% NGI-1); for AC50: CHO-ER-LucT cells, 24 hrs exposure, seven-point dose dilution, luminescence
Experimental: The CHO-ER-LucT cells have been previously described (Contessa et al., 2010, Clinical Cancer Research, 16(12):3205-14) and are used for testing analog IC50 for inhibition of N-linked glycosylation in 96 or 384 well plate format. In these cells induction of luminescence is dependent on inhibition of glycosylation (and OST inhibition), and is determined after 24 hrs of exposure to the analog following the addition of luciferin substrate. The luminescent signal is then quantified using standard plate readers that detect luminescence (e.g., Biotek synergy). Experiments are performed over a seven-point dose dilution to generate dose response data and to identify IC50 values and maximal activity compared to controls. Data is transformed to log 10 values to generate a sigmoidal shaped dose response curve and fitted using nonlinear regression (curve fit) in GraphPad Prism7.
All HL compounds were tested in CHO-ER-LucT cells. IC50 (AC50) was estimated in following method: Concentration X is converted to logarithm (log10) to generate sigmoidal shape curve and dose response curve is generated using Nonlinear regression (curve fit) in Prism. EC50 (AC50) is calculated using log(agonist) vs response-(three parameters)] which uses standard Hill slope (=1).
Max activity: [compound's fold change−1.0 (DMSO)]/[NGI−1 fold change−1.0 (DMSO)]*100(%) (Eq. 1)

[2] = test system: protein glycosylation in HEK293 cells; assay: Western blots of protein glycoforms after OST inhibitor treatment, HEK293 cells; conditions: 24 hrs, Western blot, FIG. 1
Experimental: FIG. 1 illustrates Western blots of protein glycoforms after OST inhibitor treatment in vitro. HEK293 cells were treated with each inhibitor for 24 hrs at indicated concentrations. Changes in glycosylation are shown by reduced molecular weight.
(§1) Inhibition of glycosylation is then confirmed by analysis of glycoprotein size using western blots. Increased gel mobility of proteins such as the EGFR or Halo3N indicate loss of protein glycosylation (FIGS. 1-2).

[3] = test system: STT3A (HEK293 STT3B KO cells); assay: Western blots of protein glycoforms, HEK293 cells with knockout of STT3B; conditions: 24 hrs, Western blot, FIG. 2, indicating enhanced specificity for STT3A
Experimental: FIG. 2 illustrates Western blots of protein glycoforms after OST inhibitor treatment in vitro using HEK293 cells with knockout (KO) of either STT3A or STT3B. Cells were treated with each inhibitor for 24 hrs at indicated concentrations. Changes in glycosylation are shown by reduced molecular weight.
as §1

[4] = test system: N-linked glycosylation in D54; assay: ER-LucT type AC50 determination in D54 cells (NGI-1 only); conditions: Homo sapiens

Compound | Emax [1] | AC50 [1] | Changes in glycosylation (reduced molecular weight of protein glycoforms) [2] | Effect on glycosylation in STT3B KO cells [3] | AC50 [4]
CCc1cnc(NC(=O)c2cc(S(=O)(=O)N3CCOCC3)ccc2N(C)CC2CC2)s1 [Example 3, 2-((cyclopropylmethyl)(methyl)amino)-N-(5-ethylthiazol-2-yl)-5-(morpholinosulfonyl)benzamide] | 215% | 0.059 µM | more potent effect | more potent effect | –
CCc1cnc(NC(=O)c2cc(S(=O)(=O)N3CCOCC3)ccc2N(C)C2CCCC2)s1 [Example 4, 2-(cyclopentyl(methyl)amino)-N-(5-ethylthiazol-2-yl)-5-(morpholinosulfonyl)benzamide] | 206% | 0.087 µM | more potent effect | more potent effect | –
CCc1cnc(NC(=O)c2cc(S(=O)(=O)N3CCOCC3)cnc2N(C)CC2CC2)s1 [Example 26, 2-((cyclopropylmethyl)(methyl)amino)-N-(5-ethylthiazol-2-yl)-5-(morpholinosulfonyl)nicotinamide] | 104% | 0.851 µM | – | – | –
CCc1cnc(NC(=O)c2cc(S(=O)(=O)N3CCOCC3)ccc2N(C)C2CCC2)s1 [Example 7, 2-(cyclobutyl(methyl)amino)-N-(5-ethylthiazol-2-yl)-5-(morpholinosulfonyl)benzamide] | 138% | 0.243 µM | – | – | –
CCc1cnc(NC(=O)c2cc(S(=O)(=O)N(C)C)ccc2N(C)C2CCC2)s1 [Example 15, 2-(cyclobutyl(methyl)amino)-5-(N,N-dimethylsulfamoyl)-N-(5-ethylthiazol-2-yl)benzamide] | 141% | 0.252 µM | – | – | –
C=CCN(C)c1ccc(S(=O)(=O)N(C)C)cc1C(=O)Nc1ncc(CC)s1 | 108% | 1.1 µM | – | – | –
Cc1cnc(NC(=O)c2cc(S(=O)(=O)N(C)C)ccc2N2CCCC2)s1 [NGI-1, 5-(N,N-Dimethylsulfamoyl)-N-(5-methylthiazol-2-yl)-2-(pyrrolidin-1-yl)benzamide, reference compound] | 100% | 1.11 µM | – | – | 0.712 µM
CCc1cnc(NC(=O)c2cc(S(=O)(=O)N(C)C)ccc2N(C)CC2CCC2)s1 [Example 16, 2-((cyclobutylmethyl)(methyl)amino)-5-(N,N-dimethylsulfamoyl)-N-(5-ethylthiazol-2-yl)benzamide] | 82.2% | 0.744 µM | – | – | –
Cc1sc(NC(=O)c2cc(S(=O)(=O)N3CCOCC3)ccc2N(C)CC2CC2)nc1-c1ccccc1 [Example 19, 2-((cyclopropylmethyl)(methyl)amino)-N-(5-methyl-4-phenylthiazol-2-yl)-5-(morpholinosulfonyl)benzamide] | 66.2% | 0.563 µM | – | – | –
CCc1cnc(NC(=O)c2cc(S(=O)(=O)N(C)C)ccc2N2CCC(F)(F)C2)s1 [Example 37, 2-(3,3-difluoropyrrolidin-1-yl)-5-(N,N-dimethylsulfamoyl)-N-(5-ethylthiazol-2-yl)benzamide] | 126% | 0.565 µM | – | – | –
